In the NIST ThermoML archive (doi:10.1016/j.jct.2014.03.001):
± gives the expanded uncertainty stated by the source.

Assays:
[1] = 313.15 K; 84.51 kPa; Liquid; Frequency=3 MHz; Sing-around technique in a fixed-path interferometer
[2] = mn = molality of the nth substance listed, in mol/kg; details: 84.51 kPa, Liquid; for speed of sound: Frequency=3 MHz, Sing-around technique in a fixed-path interferometer; for mass density: Vibrating tube method

Row | SMILES | speed of sound [1] | speed of sound ([2]; 288.15 K, m1 = 0.035) | mass density ([2]; 288.15 K, m1 = 0.035) | speed of sound ([2]; 293.15 K, m1 = 0.035) | mass density ([2]; 293.15 K, m1 = 0.035) | speed of sound ([2]; 298.15 K, m1 = 0.035) | mass density ([2]; 298.15 K, m1 = 0.035) | speed of sound ([2]; 303.15 K, m1 = 0.035) | mass density ([2]; 303.15 K, m1 = 0.035) | speed of sound ([2]; 308.15 K, m1 = 0.035) | mass density ([2]; 308.15 K, m1 = 0.035) | speed of sound ([2]; 313.15 K, m1 = 0.035) | mass density ([2]; 313.15 K, m1 = 0.035) | speed of sound ([2]; 313.15 K, m2 = 0)
1 | O [water] | 1529.2 ± 1.2 m/s |  |  |  |  |  |  |  |  |  |  |  |  | 
2 | Cl.N [ammonium chloride (NH4Cl)] + O |  | 1468.2 ± 1.4 m/s | 999.719 ± 0.17 kg/m3 | 1484.2 ± 1.4 m/s | 998.814 ± 0.17 kg/m3 | 1498.4 ± 1.4 m/s | 997.645 ± 0.17 kg/m3 | 1510.7 ± 1.4 m/s | 996.243 ± 0.17 kg/m3 | 1521.3 ± 1.4 m/s | 994.624 ± 0.18 kg/m3 | 1530.4 ± 1.4 m/s | 992.807 ± 0.18 kg/m3 | 
3 | O=[N+]([O-])[O-].[Na+] [sodium nitrate] + O |  | 1468.2 ± 1.5 m/s | 1001.14 ± 0.2 kg/m3 | 1484.2 ± 1.5 m/s | 1000.21 ± 0.2 kg/m3 | 1498.3 ± 1.5 m/s | 999.017 ± 0.2 kg/m3 | 1510.5 ± 1.5 m/s | 997.592 ± 0.2 kg/m3 | 1521.1 ± 1.5 m/s | 995.954 ± 0.2 kg/m3 | 1530.1 ± 1.5 m/s | 994.12 ± 0.2 kg/m3 | 
4 | O=C([O-])CC(O)(CC(=O)[O-])C(=O)[O-].[Na+].[Na+].[Na+] [trisodium citrate] + O |  | 1474.7 ± 1.6 m/s | 1005.71 ± 0.26 kg/m3 | 1490.6 ± 1.6 m/s | 1004.75 ± 0.26 kg/m3 | 1504.5 ± 1.6 m/s | 1003.53 ± 0.26 kg/m3 | 1516.7 ± 1.6 m/s | 1002.08 ± 0.26 kg/m3 | 1527.1 ± 1.6 m/s | 1000.42 ± 0.26 kg/m3 | 1536 ± 1.6 m/s | 998.572 ± 0.26 kg/m3 | 
5 | [Cl][Fe]([Cl])[Cl] [ferric chloride] + O |  | 1470.9 ± 1.5 m/s | 1003.96 ± 0.2 kg/m3 | 1486.8 ± 1.5 m/s | 1003.05 ± 0.2 kg/m3 | 1500.8 ± 1.5 m/s | 1001.87 ± 0.2 kg/m3 | 1513 ± 1.5 m/s | 1000.46 ± 0.2 kg/m3 | 1523.5 ± 1.5 m/s | 998.83 ± 0.2 kg/m3 | 1532.4 ± 1.5 m/s | 997.003 ± 0.2 kg/m3 | 
6 | C[N+](C)(C)C.[Cl-] [tetramethylammonium chloride] + O |  | 1470.2 ± 1.8 m/s | 999.201 ± 0.42 kg/m3 | 1486.1 ± 1.9 m/s | 998.29 ± 0.42 kg/m3 | 1500.1 ± 1.9 m/s | 997.12 ± 0.42 kg/m3 | 1512.3 ± 1.9 m/s | 995.716 ± 0.42 kg/m3 | 1522.8 ± 1.9 m/s | 994.093 ± 0.42 kg/m3 | 1531.7 ± 1.9 m/s | 992.272 ± 0.42 kg/m3 | 
7 | O [water] + CCCCCCCCCCCCn1cc[n+](C)c1.[Br-] |  |  |  |  |  |  |  |  |  |  |  |  |  | 1529.2 ± 1.2 m/s

The next lines start with the values.

Row | speed of sound [1] | speed of sound ([2]; 288.15 K, m1 = 0.035) | mass density ([2]; 288.15 K, m1 = 0.035) | speed of sound ([2]; 293.15 K, m1 = 0.035) | mass density ([2]; 293.15 K, m1 = 0.035) | speed of sound ([2]; 298.15 K, m1 = 0.035) | mass density ([2]; 298.15 K, m1 = 0.035) | speed of sound ([2]; 303.15 K, m1 = 0.035) | mass density ([2]; 303.15 K, m1 = 0.035) | speed of sound ([2]; 308.15 K, m1 = 0.035) | mass density ([2]; 308.15 K, m1 = 0.035) | speed of sound ([2]; 313.15 K, m1 = 0.035) | mass density ([2]; 313.15 K, m1 = 0.035) | speed of sound ([2]; 313.15 K, m2 = 0) | SMILES
8 |  | 1472.6 ± 1.6 m/s | 1003.68 ± 0.26 kg/m3 | 1488.6 ± 1.6 m/s | 1002.73 ± 0.26 kg/m3 | 1502.6 ± 1.6 m/s | 1001.52 ± 0.26 kg/m3 | 1514.8 ± 1.6 m/s | 1000.09 ± 0.26 kg/m3 | 1525.3 ± 1.6 m/s | 998.436 ± 0.26 kg/m3 | 1534.2 ± 1.6 m/s | 996.589 ± 0.26 kg/m3 |  | O=S(=O)([O-])[O-].[Na+].[Na+] [sodium sulfate] + O
9 |  | 1468.5 ± 1.5 m/s | 1000.79 ± 0.2 kg/m3 | 1484.5 ± 1.5 m/s | 999.873 ± 0.2 kg/m3 | 1498.7 ± 1.5 m/s | 998.698 ± 0.2 kg/m3 | 1510.9 ± 1.5 m/s | 997.288 ± 0.2 kg/m3 | 1521.5 ± 1.5 m/s | 995.661 ± 0.2 kg/m3 | 1530.5 ± 1.5 m/s | 993.836 ± 0.2 kg/m3 |  | [Cl-].[K+] [potassium chloride] + O
10 |  | 1471.1 ± 1.6 m/s | 1002.4 ± 0.26 kg/m3 | 1487.1 ± 1.6 m/s | 1001.48 ± 0.26 kg/m3 | 1501.3 ± 1.6 m/s | 1000.31 ± 0.26 kg/m3 | 1513.5 ± 1.6 m/s | 998.899 ± 0.26 kg/m3 | 1524 ± 1.6 m/s | 997.276 ± 0.26 kg/m3 |  | 995.455 ± 0.26 kg/m3 |  | [Cl-].[Cl-].[Mg+2] [magnesium chloride] + O
11 |  | 1468.8 ± 1.5 m/s | 1000.55 ± 0.2 kg/m3 | 1484.9 ± 1.5 m/s | 999.636 ± 0.2 kg/m3 |  | 998.457 ± 0.2 kg/m3 | 1511.3 ± 1.5 m/s | 997.046 ± 0.2 kg/m3 | 1521.9 ± 1.5 m/s | 995.419 ± 0.2 kg/m3 | 1530.9 ± 1.5 m/s | 993.592 ± 0.2 kg/m3 |  | [Cl-].[Na+] [sodium chloride] + O
12 |  | 1473.1 ± 1.4 m/s | 1003.04 ± 0.17 kg/m3 | 1489.1 ± 1.4 m/s | 1002.09 ± 0.17 kg/m3 | 1503 ± 1.4 m/s | 1000.88 ± 0.17 kg/m3 | 1515.2 ± 1.4 m/s | 999.439 ± 0.17 kg/m3 | 1525.7 ± 1.4 m/s | 997.791 ± 0.17 kg/m3 | 1534.6 ± 1.4 m/s | 995.95 ± 0.17 kg/m3 |  | O=C([O-])[O-].[Na+].[Na+] [sodium carbonate] + O
